Results taken from patent EP1564305A2, “Means for detecting and treating cancer cells resistant to therapeutic agents” (priority 2004, dated 2005).
Entries after “also recorded” stand apart in the source; their conditions may differ.

Columns and labels:
[1] = test system: CAL33 human HNSCC cell line; experiment: cells; type: cell-based; conditions: CAL-33, MTT, 72h incubation, drug used alone
Description: (§1) The 3-(4,5-dimethylthiazol-2-yl)-2,5-diphenyltetrazolium bromide (MTT) cell proliferation assay was used to determine the growth inhibitory effect of gefitinib on the Hep2, CAL33 and […] human HNSCC cell lines. […] Each measurement was done in quadruplicate and the data were expressed as % proliferation of control cells incubated in the absence of drug.

[2] = test system: Hep2 human HNSCC cell line; experiment: cells; type: cell-based
Description: as §1

[3] = test system: PC3 human HNSCC cell line; experiment: cells; type: cell-based; conditions: MTT, 72h incubation, drug used alone
Description: as §1

[4] = test system: human SC131 NSCLC xenograft; type: in vivo, nude mice
Description: (§2) The effect of gefitinib and PEITC alone or in combination on the growth of human tumor xenografts in nude mice was tested according to previously published procedures.
(§3) Briefly, tumor xenografts were maintained by successive s.c. transplantation of tumor fragments in 8-week old nude mice. Tumor growth curves were obtained by plotting the mean relative tumor volume (i.e. the volume at a given time divided by the volume at the start of the experiment) from groups of at least 5 mice against time. Gefitinib was administered per os at 40 or 120 mg/kg 5 days a week for 3 to 5 weeks, while PEITC dissolved in corn oil was administered per os at 20 to 90 mg/kg every 2 days.

[5] = test system: human HEP-2 HNSCC xenograft; set-up: species or system nude mice; conditions: mouse, in vivo
Description: as §2, §3

[6] = Toxicity in treated xenograft-bearing mice (weight loss, clinical observation); type: in vivo, nude mice; conditions: gefitinib 40 or 120 mg/kg per os 5 days a week; PEITC 20 to 90 mg/kg per os every 2 days
Description: as §3

[7] = test system: human IC14 NSCLC xenograft; experiment: Tumor xenograft growth in nude mice; type: in vivo; conditions: gefitinib 120 mg/kg per os, 5 days a week for 3 to 5 weeks
Description: as §2, §3

[8] = test system: human IC9 NSCLC xenograft; experiment: Tumor xenograft growth in nude mice; type: in vivo; conditions: gefitinib 120 mg/kg per os, 5 days a week for 3 to 5 weeks
Description: as §2, §3

[9] = test system: human TEP NSCLC xenograft; experiment: Tumor xenograft growth in nude mice; type: in vivo; conditions: gefitinib 120 mg/kg per os, 5 days a week for 3 to 5 weeks
Description: as §2, §3

[10] = test system: advanced NSCLC; conditions: 142 patients with refractory disease; cited from earlier work
[11] = test system: NSCLC; conditions: gefitinib added to chemotherapy; over 2000 previously untreated NSCLC patients; cited from earlier work

| SMILES | IC50 [1] | IC50 ([2]; Homo sapiens, HEP-2, MTT, 72h incubation, drug used alone) | IC50 [3] | inhibition of tumor growth ([4]; mouse, in vivo) | inhibition of tumor growth [5] | toxicity, judged by absence of weight loss and clinical observation [6] | increase in the IC50 for gefitinib, compared with CAL33 and PC3 ([2]; Hep2 versus CAL33 and PC3) | tumor growth response [7] | tumor growth response [8] | tumor growth response [9] | tumor growth response ([4]; gefitinib 120 mg/kg per os, 5 days a week for 3 to 5 weeks) | response rate [10] | benefit in survival, tumor response, or time to progression [11] |
| --- | --- | --- | --- | --- | --- | --- | --- | --- | --- | --- | --- | --- | --- |
| S=C=NCCc1ccccc1 [PEITC, Phenylethyl isothiocyanate] | 180 µM | 350 µM | 490 µM | neither gefitinib or PEITC had any antitumor effect | neither gefitinib or PEITC had any antitumor effect | No toxicity was observed |  |  |  |  |  |  |  |
| COc1cc2ncnc(Nc3ccc(F)c(Cl)c3)c2cc1OCCCN1CCOCC1 [gefitinib, Gefitinib] |  |  |  |  |  | No toxicity was observed | 4 fold | responded | sensitive; also recorded: responded | responded | refractory; also recorded: did not respond | 10% | no benefit |
